These are literature values, as cited in US6472583B1, “Plasmid-based mutation detection system in transgenic fish” (The University of Georgia Research Foundation, Inc., priority 1998, dated 2002).

Read-outs that look alike come from different tables or passages of the source.

Data set [1] relates to λLIZ transgenic fish. The following applies: previous studies using λLIZ transgenic fish.
The conditions of data set [2]: species not stated.

By LD50 is commonly meant the dose expected to kill half of the subjects tested. In the case of `CCN(N=O)C(N)=O` [ENU, N-ethyl-N-nitrosourea], the mutation frequency induction result was “two-fold” in data set [1] (dose about 0.5 mM (60 ppm)) and “four-fold” in data set [1] (dose about 120 ppm, medaka). For the same compound, the median lethal dose (LD50) in data set [2] is approximately 350 mg/kg.
